US12037324B2, “Biarylmethyl heterocycles” (Université de Montréal, priority 2016, dated 2024)
Where two headings read alike, the source gives them in different places.

Legend:
[1] = target: T1, AGTR1 (Homo sapiens, UniProt P30556); test: DiscoveRx IP1 accumulation assay (HTRF), agonist mode, Pathunter CHO-K1 AGTR1 β-arrestin cell line; format: cell-based; conditions: for EC50: read-out: IP-1 EC50
T1 construct: host or cells: Pathunter CHO-K1 AGTR1 β-arrestin cell line (CHO-K1)
T1 sequence (P30556 1-359): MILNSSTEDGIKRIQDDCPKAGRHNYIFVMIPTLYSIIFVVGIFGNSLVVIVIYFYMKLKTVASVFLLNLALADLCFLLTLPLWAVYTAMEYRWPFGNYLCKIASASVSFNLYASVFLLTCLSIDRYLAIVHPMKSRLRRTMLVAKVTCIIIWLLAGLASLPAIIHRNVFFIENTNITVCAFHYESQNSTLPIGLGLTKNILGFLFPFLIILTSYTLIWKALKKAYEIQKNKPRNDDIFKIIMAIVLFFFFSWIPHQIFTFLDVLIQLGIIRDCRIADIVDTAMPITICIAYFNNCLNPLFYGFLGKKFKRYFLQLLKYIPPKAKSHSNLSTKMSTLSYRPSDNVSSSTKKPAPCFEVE
Outline: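 Agonist mode in CHO-K1 AGTR1 β-arrestin cells plated 14-16 h before; compounds at varying concentrations for 90 min at 37° C, IP1 accumulation read by HTRF (D2-conjugate and anti-IP1 cryptate, 20 min room temperature). EC50 from 4-parameter logistic fit; activity given as percentage of maximal AII effect.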

[2] = target: T1, AGTR1; test: DiscoveRx β-arrestin2 recruitment assay (enzyme complementation, Pathunter CHO-K1 AGTR1 β-arrestin cell line); format: cell-based; conditions: DiscoveRx β-arrestin2 recruitment; for DiscoveRx β-arrestin2 Ymax (%): maximal response
Outline: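 CHO-K1 cells expressing AGTR1 with β-arrestin2 enzyme-complementation reporter, plated 14-16 h ahead in 1% serum medium, then exposed to compounds for 90 min at 37° C. Chemiluminescence read after 1 h detection. EC50 (agonist) or IC50 (antagonist) from 4-parameter logistic fit; activity as percentage of All maximal effect.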

[3] = target: T2, hAT1R (Homo sapiens, UniProt P30556); test: cell-based; conditions: agonist mode; for EC50: read-out: BRET P63 EC50
T2 sequence (P30556 1-359): T1 sequence (P30556 1-359)

[4] = target: T2, hAT1R; test: cell-based
[5] = Low AT1R Expression, read-out: BRET β-Arrestin2 Low AT1R Expression EC50
[6] = section of the 42nd table ending at r951, example numbering restarts after the DiscoveRx section, read-out: β-arrestin2 EC50

| EC50 [4, 6] [nM] | SMILES | IP-1 Ymax (%) [1] [%] | EC50 [1] [nM] | EC50 [2] [nM] | DiscoveRx β-arrestin2 Ymax (%) [2] [%] | BRET P63 Ymax [3] [%] | EC50 [3] [nM] | BRET β-Arrestin2 Low AT1R Expression Ymax (%) ([4]; Low AT1R Expression) | EC50 [4, 5] [nM] |
| --- | --- | --- | --- | --- | --- | --- | --- | --- | --- |
|  | CCc1nc2c(C)cc(C)nc2n1Cc1ccc(-c2cc(-c3ccc(F)cn3)ccc2-c2nn[nH]n2)cc1 [Example 65] | 12.2 | 62.7 | 27.3 | 31.0 | 13.1 | 17.2 | 54.5 | 23.6 |
|  | CCc1nc2c(C)cc(C)nc2n1Cc1ccc(-c2cc(-c3cc(C)c(F)cn3)ccc2-c2nn[nH]n2)cc1 [Example 66] | 6.9 | 8.5 | 5.8 | 25.8 |  | > 10000 | 39.4 | 16.6 |
|  | CCc1nc2c(C)cc(C)nc2n1Cc1ccc(-c2cc(-c3cc(C(F)F)ccn3)ccc2-c2nn[nH]n2)cc1 [Example 67] | 10.2 | 26.5 | 19.3 | 30.9 | 14.3 | 7.3 | 40.7 | 14.5 |
|  | CCc1nc2c(C)cc(C)nc2n1Cc1ccc(-c2cc(C3CCCOC3)ccc2-c2nn[nH]n2)cc1 (stereo not shown) [Example 79] | 9.4 | 499 | 286 | 31.7 |  | > 10000 | 21.1 | 464 |
|  | CCc1nc2c(C)cc(C)nc2n1Cc1ccc(-c2cc(C3CCCC3)ccc2-c2nn[nH]n2)cc1 [Example 80, 3-((5′-cyclopentyl-2′-(2H-tetrazol-5-yl)-[1,1′-biphenyl]-4-yl)methyl)-2-ethyl-5,7-dimethyl-3H-imidazo[4,5-b]pyridine] | 14.6 | 425 | 73.4 | 33.5 |  | > 100000 | 29.8 | 30.4 |
|  | CCc1nc2c(C)cc(C)nc2n1Cc1ccc(-c2cc(C3CCCCCC3)ccc2-c2nn[nH]n2)cc1 [Example 81] |  | > 100000 | 38.3 | 17.6 |  | > 100000 | 16.3 | 38.3 |
|  | CCc1nc2c(C)cc(C)nc2n1Cc1ccc(-c2cc(N3CCCCC3)ccc2-c2nn[nH]n2)cc1 [Example 91] |  | > 100000 | 60.6 | 22.6 |  | > 100000 |  | > 10000 |
|  | CC1=NC2(CCCC2)C(=O)N1Cc1ccc(-c2cc(-c3ccccc3)ccc2-c2nn[nH]n2)cc1 [Example 110, 3-((6′-(2H-tetrazol-5-yl)-[1,1′:3′,1″-terphenyl]-4-yl)methyl)-2-methyl-1,3-diazaspiro[4.4]non-1-en-4-one] | 9.0 | 108 | 35.9 | 26.9 |  | > 100000 | 22.1 | 95.5 |
|  | CC1=NC2(CCCC2)C(=O)N1Cc1ccc(-c2cc(-c3cc(C)ccn3)ccc2-c2nn[nH]n2)cc1 [Example 111, 2-methyl-3-((5′-(4-methylpyridin-2-yl)-2′-(2H-tetrazol-5-yl)-[1,1′-biphenyl]-4-yl)methyl)-1,3-diazaspiro[4.4]non-1-en-4-one] | 15.7 | 12.6 | 6.4 | 63.3 | 24.1 | 22.3 | 80.7 | 14.7 |
|  | CCC1=NC2(CCCC2)C(=O)N1Cc1ccc(-c2cc(-c3cc(C)ccn3)ccc2-c2nn[nH]n2)cc1 [Example 113] | 17.8 | 83.5 | 14.9 | 66.3 | 28.6 | 17.2 | 88.6 | 9.8 |
|  | CCCC1=NC2(CCCC2)C(=O)N1Cc1ccc(-c2cc(-c3cc(OC)ccn3)ccc2-c2nn[nH]n2)cc1 [Example 115, 3-((5′-(4-methoxypyridin-2-yl)-2′-(2H-tetrazol-5-yl)-[1,1′-biphenyl]-4-yl)methyl)-2-propyl-1,3-diazaspiro[4.4]non-1-en-4-one] | 13.6 | 39.3 | 13.3 | 30.8 | 22.1 | 11.9 | 53.3 | 16.8 |
|  | CCCC1=NC2(CCCC2)C(=O)N1Cc1ccc(-c2cc(-c3cc(C)ccn3)ccc2-c2nn[nH]n2)cc1 [Example 116, 3-((5′-(4-methylpyridin-2-yl)-2′-(2H-tetrazol-5-yl)-[1,1′-biphenyl]-4-yl)methyl)-2-propyl-1,3-diazaspiro[4.4]non-1-en-4-one] | 15.1 | 39.7 | 14.1 | 42.1 | 27.7 | 14.7 | 81.9 | 17.2 |
|  | Cc1ccnc(-c2ccc(-c3nn[nH]n3)c(-c3ccc(CN4C(=O)C5(CCCC5)N=C4C(C)C)cc3)c2)c1 [Example 118] | 17.1 | 155 | 66 | 50.0 | 21.8 | 102 | 78.7 | 173 |
|  | COc1ccnc(-c2ccc(-c3nn[nH]n3)c(-c3ccc(CN4C(=O)C5(CCCC5)N=C4C4CC4)cc3)c2)c1 [Example 119, 2-cyclopropyl-3-((5′-(4-methoxypyridin-2-yl)-2′-(2H-tetrazol-5-yl)-[1,1′-biphenyl]-4-yl)methyl)-1,3-diazaspiro[4.4]non-1-en-4-one] | 18.4 | 108 | 47.5 | 51.4 | 21.8 | 40.5 | 63.9 | 53.9 |
|  | Cc1ccnc(-c2ccc(-c3nn[nH]n3)c(-c3ccc(CN4C(=O)C5(CCCC5)N=C4C4CC4)cc3)c2)c1 [Example 120, 2-cyclopropyl-3-((5′-(4-methylpyridin-2-yl)-2′-(2H-tetrazol-5-yl)-[1,1′-biphenyl]-4-yl)methyl)-1,3-diazaspiro[4.4]non-1-en-4-one] | 20.7 | 75.3 | 12.5 | 44.5 | 17.8 | 18.4 | 50.1 | 34.3 |
| 42.7 | CCCCC1=NC2(CCOCC2)C(=O)N1Cc1ccc(-c2cc(-c3cccc(C)c3)ccc2-c2nn[nH]n2)cc1 [Example 155, 2-butyl-3-((3″-methyl-6′-(2H-tetrazol-5-yl)-[1,1′:3′,1″-terphenyl]-4-yl)methyl)-8-oxa-1,3-diazaspiro[4.5]dec-1-en-4-one] |  | > 100000 | 40.8 | 32.0 |  | > 100000 |  |  |
| 250 | CCCCC1=NC2(CCOCC2)C(=O)N1Cc1ccc(-c2cc(-c3ccccc3)ccc2-c2nnn[nH]2)cc1 [Example 156] | 7.2 | 189 | 85.1 | 19.9 |  | > 100000 |  |  |
| > 10000 | CC1=NC2(CCOCC2)C(=O)N1Cc1ccc(-c2cc(-c3ccccc3)ccc2-c2nn[nH]n2)cc1 [Example 172, 3-((6′-(2H-tetrazol-5-yl)-[1,1′:3′,1″-terphenyl]-4-yl)methyl)-2-methyl-8-oxa-1,3-diazaspiro[4.5]dec-1-en-4-one] | 9.4 | 782 | 196 | 27.1 |  | > 10000 |  |  |

| SMILES | EC50 [4, 6] [nM] | IP-1 Ymax (%) [1] [%] | EC50 [1] [nM] | EC50 [2] [nM] | DiscoveRx β-arrestin2 Ymax (%) [2] [%] | BRET P63 Ymax [3] [%] | EC50 [3] [nM] | BRET β-Arrestin2 Low AT1R Expression Ymax (%) ([4]; Low AT1R Expression) | EC50 [4, 5] [nM] |
| --- | --- | --- | --- | --- | --- | --- | --- | --- | --- |
| CCCCC1=NC2(CCOCC2)C(=O)N1Cc1ccc(-c2cc(-c3ccccc3O)ccc2-c2nnn[nH]2)cc1 [Example 157] | 61.1 | 11.4 | 60.1 | 30.3 | 44.7 | 16.5 | 37.6 |  |  |
| CCCCC1=NC2(CCOCC2)C(=O)N1Cc1ccc(-c2cc(-c3cc(C)ccn3)ccc2-c2nn[nH]n2)cc1 [Example 171, 2-butyl-3-((5′-(4-methylpyridin-2-yl)-2′-(2H-tetrazol-5-yl)-[1,1′-biphenyl]-4-yl)methyl)-8-oxa-1,3-diazaspiro[4.5]dec-1-en-4-one] | 68.4 | 68.1 | 8120 | 33.5 | 38.6 | 20.1 | 30.9 |  |  |
